Data from patent US5470830A, “Motilin-like polypeptides that inhibit gastrointestinal motor activity” (Ohmeda Pharmaceutical Products Division Inc., priority 1993, dated 1995).
Like-named read-outs stand apart in the source and are kept apart here. Where a SMILES comes first, the peptide text is derived from it. Where no end group is shown, it is not given here. [ ]: non-standard residue; d: D form. Phe(4-I) = N[C@@H](Cc1ccc(I)cc1)C(=O)O; 2Thi = N[C@@H](Cc1cccs1)C(=O)O

Tests used:
[1] = biological target: T1, motilin receptor (rabbit antral smooth muscle membranes) (Oryctolagus cuniculus, UniProt G1T803); test: Motilin receptor binding affinity: displacement of [125I-Tyr7,Nle13]motilin(porcine)
T1 construct: from tissue; host or cells: rabbit antral smooth muscle membranes
Procedure: The motilin receptor binding affinity of the peptides of this invention was determined by using the general procedure of Bormans, Peelers and Vantrappen, Regul. Pept., 15, 143-153 (1986). The ability of the peptides to displace [^125 I-Tyr^7,Nle^13 ]motilin(porcine) bound to rabbit antral smooth muscle membranes, was determined by testing twice, each time in duplicate, at concentrations ranging from 10^-11 to 10^-4 M. The concentration displacing 50% of the label (IC50) was determined by fitting the data to the equation describing displacement, assuming a single class of motilin receptors to which labeled and non-labeled motilin bind with equal affinity and non-cooperatively. Fitting was performed using the iterative least-squares procedure of the SAS-software package (SAS Institute, Inc., Cary, N.C., U.S.A.). […] The concentration displacing 50% of the label is expressed using its negative logarithm (pIC50).

[2] = biological target: segments of rabbit duodenum (Oryctolagus cuniculus, UniProt G1T803); test: Rabbit duodenal smooth muscle strip tissue bath assay (contractile response); format: cell-based; settings: contractility; negative logarithm of dose giving 50% of maximal response to motilin; compounds tested 10^-11 to 10^-4 M
Procedure: The experimental protocol consisted of an equilibration period of 1 hour: a challenge with 10^-4 M acetylcholine followed by a wash-out period; a cumulative dose-response curve of a compound with, at the end, the addition of 10^-7 M motilin; and finally 10^-4 M acetylcholine. If the final response to 10^-4 M acetylcholine differed by more than 5% from the initial response, the results were discarded.

motilin receptor = biological target: T2, motilin receptor (Oryctolagus cuniculus, UniProt G1T803); test: Motilin receptor antagonism: contractile response of rabbit duodenum to motilin in presence of compound; format: cell-based
T2 construct: segments of rabbit duodenum; from tissue; host or cells: segments of rabbit duodenum
Procedure: To determine motilin receptor antagonism, the contractile response of segments of rabbit duodenum to motilin was determined isotonically in the tissue bath in the presence of a fixed concentration of the compound of interest. The experimental protocol consisted of an equilibration period of 1 hour; a challenge with 10^-4 M acetylcholine followed by a wash-out period; a cumulative motilin dose-response curve in the presence of the motilin receptor antagonist; and finally a challenge with 10^-4 M acetylcholine. If the final response to 10^-4 M acetylcholine differed by more than 5% from the initial response, the results were discarded. The point corresponding to 50% of the maximal response to motilin (Emax) was determined by fitting the equation
through the data points. The dose of motilin giving 50% of the response is expressed using its negative logarithm (pEC50). Compounds of interest were tested at concentrations of 10^-8 to 10^-5 M.

[3] = negative logarithm of concentration displacing 50% of [125I-Tyr7,Nle13]motilin(porcine) from rabbit antral smooth muscle membranes, read-out: pIC50 (converted)

T1 sequence (G1T803 1-400): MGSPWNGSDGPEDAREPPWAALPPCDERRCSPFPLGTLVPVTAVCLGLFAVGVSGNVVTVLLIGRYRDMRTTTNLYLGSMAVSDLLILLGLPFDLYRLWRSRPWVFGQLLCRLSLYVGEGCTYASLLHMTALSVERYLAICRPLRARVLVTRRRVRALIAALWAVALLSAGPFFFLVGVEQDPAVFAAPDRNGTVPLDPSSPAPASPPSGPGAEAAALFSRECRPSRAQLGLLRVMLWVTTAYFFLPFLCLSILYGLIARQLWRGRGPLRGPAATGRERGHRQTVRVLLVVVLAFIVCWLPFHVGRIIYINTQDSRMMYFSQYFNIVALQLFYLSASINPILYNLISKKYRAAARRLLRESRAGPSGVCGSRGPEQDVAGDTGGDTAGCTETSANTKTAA
Sequence of segments of rabbit duodenum (G1T803 1-400): as above
T2 sequence (G1T803 1-400): as above

| IC50 [1, 3] [nM] | pEC50 [2] | block of the full contractile response to motilin (motilin receptor; compound at 10^-5 M) | shift of the dose-response curve of motilin (motilin receptor; compound at 10^-6 M) | Compound | IC50 [1] [nM] |
| --- | --- | --- | --- | --- | --- |
| 81.3 | < 4.5 | – | – | CC[C@H](C)[C@H](NC(=O)[C@H](Cc1ccccc1)NC(=O)[C@@H](NC(=O)[C@@H](N)Cc1ccccc1)C(C)C)C(=O)N[C@@H](Cc1ccccc1)C(=O)N[C@H](C(=O)N[C@@H](Cc1ccc(O)cc1)C(=O)NCC(=O)N[C@@H](CCC(=O)O)C(=O)N[C@@H](CC(C)C)C(=O)N[C@@H](CCC(N)=O)C(=O)N[C@H](CCCNC(=N)N)C(=O)N[C@@H](CC(C)C)C(=O)N[C@@H](CCC(N)=O)C(=O)O)[C@@H](C)O [[Phe^3, D-Arg^12, Leu^13]pMOT(1-14)] (H-FVFIFTYGELQ[dR]LQ-OH) | – |
| 25.7 | < 4.5 | – | – | CC[C@H](C)[C@H](NC(=O)[C@H](Cc1cccs1)NC(=O)[C@@H](NC(=O)[C@@H](N)Cc1ccccc1)C(C)C)C(=O)N[C@@H](Cc1ccccc1)C(=O)N[C@H](C(=O)N[C@@H](Cc1ccc(O)cc1)C(=O)NCC(=O)N[C@@H](CCC(=O)O)C(=O)N[C@@H](CC(C)C)C(=O)N[C@@H](CCC(N)=O)C(=O)N[C@@H](CCCNC(=N)N)C(=O)N[C@@H](CC(C)C)C(=O)N[C@@H](CCC(N)=O)C(=O)O)[C@@H](C)O [[Thi^3, Leu^13]pMOT(1-14), H-Phe-Val-Thi-Ile-Phe-Thr-Tyr-Gly-Glu-Leu-Gln-Arg-Leu-Gln-OH] (H-FV[2Thi]IFTYGELQRLQ-OH) | – |
| 43.7 | < 4.5 | – | – | CC[C@H](C)[C@H](NC(=O)[C@H](Cc1ccc(I)cc1)NC(=O)[C@@H](NC(=O)[C@@H](N)Cc1ccccc1)C(C)C)C(=O)N[C@@H](Cc1ccccc1)C(=O)N[C@H](C(=O)N[C@@H](Cc1ccc(O)cc1)C(=O)NCC(=O)N[C@@H](CCC(=O)O)C(=O)N[C@@H](CC(C)C)C(=O)N[C@@H](CCC(N)=O)C(=O)N[C@@H](CCCNC(=N)N)C(=O)N[C@@H](CC(C)C)C(=O)N[C@@H](CCC(N)=O)C(=O)O)[C@@H](C)O [[p-I-Phe^3, Leu^13]pMOT(1-14), H-Phe-Val-p-L-Phe-Ile-Phe-Thr-Tyr-Gly-Glu-Leu-Gln-Arg-Leu-Gln-OH] (H-FV[Phe(4-I)]IFTYGELQRLQ-OH) | – |
| 27.5 | < 4.5 | – | – | FVFIFTYGELQR-NH2 [[Phe^3 pMOT(1-12) amide, [3-Phenylalanine]motilin-(1-12)-peptide Amide (Porcine), Bis-trifluoroacetate Salt] | – |
| 33.9 | < 4.5 | – | – | H-FLFIFTYGELQRLQ-OH [[Leu^2, Phe^3, Leu^13]pMOT(1-14), H-Phe-Leu-Phe-Ile-Phe-Thr-Tyr-Gly-Glu-Leu-Gln-Arg-Leu-Gln-OH] | – |
| 15.8 | < 4.5 | – | – | H-FVFIATYGELQRLQ-OH [[Phe^3, Ala^5, Leu^13]pMOT(1-14), H-Phe-Val-Phe-Ile-Ala-Thr-Tyr-Gly-Glu-Leu-Gln-Arg-Leu-Gln-OH] | – |
| 30.9 | < 4.5 | – | – | H-FVFIFTFGELQRLQ-OH [[Phe^3, Phe^7, Leu^13]pMOT(1-14), H-Phe-Val-Phe-Ile-Phe-Thr-Phe-Gly-Glu-Leu-Gln-Arg-Leu-Gln-OH] | – |
| 15.8 | < 4.5 | – | – | H-FVFIFTYGELARLQ-OH [[Phe^3, Ala^11, Leu^13]pMOT(1-14), H-Phe-Val-Phe-Ile-Phe-Thr-Tyr-Gly-Glu-Leu-Ala-Arg-Leu-Gln-OH] | – |
| 1.58 | < 4.5 | – | – | H-FVFIFTYGELQRLK-NH2 [[Phe^3, Leu^13, Lys^14]pMOT(1-14) amide, H-Phe-Val-Phe-Ile-Phe-Thr-Tyr-Gly-Glu-Leu-Gln-Arg-Leu-Lys-NH2] | – |
| 16.2 | < 4.5 | completely blocked | shifted by about one log unit | H-FVFIFTYGELQRLQ-OH [[Phe^3, Leu^13]pMOT(1-14), H-Phe-Val-Phe-Ile-Phe-Thr-Tyr-Gly-Glu-Leu-Gln-Arg-Leu-Gln-OH] | – |
| 3.98 | < 4.5 | – | – | H-FVFLFTYGELQRLQ-OH [[Phe^3, Leu^4, Leu^13]pMOT(1-14), H-Phe-Val-Phe-Leu-Phe-Thr-Tyr-Gly-Glu-Leu-Gln-Arg-Leu-Gln-OH] | – |
| 178 | < 4.5 | – | – | H-FVLIFTYGELQRLQ-OH [[Leu^3, Leu^13]pMOT(1-14), H-Phe-Val-Leu-Ile-Phe-Thr-Tyr-Gly-Glu-Leu-Gln-Arg-Leu-Gln-OH] | – |

| Compound | IC50 [1, 3] [nM] | pEC50 [2] | block of the full contractile response to motilin (motilin receptor; compound at 10^-5 M) | shift of the dose-response curve of motilin (motilin receptor; compound at 10^-6 M) | IC50 [1] [nM] |
| --- | --- | --- | --- | --- | --- |
| FVFIFTYGELQRLQEKERNKGQ [[Phe^3,Leu^13]pMOT, [3-Phenylalanine, 13-leucine]motilin (Porcine), Pentakis-trifluoroacetate Salt] | – | < 4.5 | – | – | 0.776 |
| FVIIFTYGELQRLQEKERNKGQ [[Ile^3, Leu^13]pMOT] | – | < 4.5 | – | – | 15.1 |
